In patent US5958885A, “Peptide and formulations thereof inhibiting elevations of triglyceride levels in blood” (Hankyu Kyoei Bussan Co., Ltd., priority 1996, dated 1999):
Residues, ends and D or L forms follow the SMILES beside them.

What was measured:
[1] = tested on: serum TG levels; assay: Serum TG elevation inhibiting action, peptide given 1 hr after olive oil; type: in vivo, male ICR mice; conditions: for Specific Activity (ratio to mg protein): relative to globin proteolysate (GD) = 1, Table 3; for ID50 (dose which inhibits in vivo 50% of serum TG elevations): olive oil 18 g/kg oral, peptide oral 1 hr later, serum TG another 1 hr later
Experimental: Subsequently, serum TG elevation inhibiting action was examined as described below on the peptide (VVYP) having the amino acid sequence shown in SEQ ID NO: 1 synthesized in Example 2, peptides Val-Tyr-Pro (vYP) and Val-Thr-Leu (VTL) synthesized in the same manner as described in Example 2, and the globin proteolysate (GD) obtained in the Reference Example.
Olive oil (18 g/kg body weight) was administered orally to male ICR mice (6 week old, body weight: 25-28 g) which fasted for an overnight. One hour thereafter, an aqueous solution of the above peptide (0.3 ml/mouse) was administered orally. […] A dose-response curve was obtained from the dose of the peptide and inhibition rate of TG, and the 50% inhibition dose ID50 was calculated. Then, the activity of individual peptides was compared with each other.

[2] = tested on: pepsin (artificial gastric juice); assay: In vitro stability against digestive enzymes, artificial gastric juice; type: in vitro ADME; conditions: for Ratio of recovery: after pepsin in 0.1 N HCl, 37° C., 4 hr, HPLC peak area, before treatment = 100
Experimental: (§1) In vitro stability test against digestive enzymes was conducted on the peptide (VVYP) having the amino acid sequence shown in SEQ ID NO: 1 synthesized in Example 2 and peptides Val-Tyr-Pro (VYP) and Val-Thr-Leu (VTL) synthesized in the same manner as described in Example 2.
(§2) Briefly, to 127.5 ml of 0.1 N HCl solution of the above VVYP, VYP or VTL, 22.5 ml of 0.67 mg/ml pepsin (artificial gastric juice) dissolved in 0.1 N HCl was added and reacted at 37° C. for 4 hr. Thereafter, 75 ml of 0.53 mg/ml pancreatin (artificial pancreatic juice) dissolved in […] of 0.5 N borate buffer (pH 8.0) was added thereto and reacted at 37° C. for 2 hr. Samples before digestion with artificial gastric juice, after digestion with artificial gastric juice, and after digestion with artificial pancreatic juice were analyzed under the following conditions.
(§3) Equipment used: HPLC (Waters; LC Modulel)
(§4) Column: SuperPac Pep-S, 5 μm (PHARMACIA K.K.)
(§5) Mobile phase A: 0.1% trifluoroacetic acid B: Acetonitrile-water (50:50, containing 0.1% tri-fluoroacetic acid)
(§6) Flow rate: 0.8 ml/min (VYP, VTL), 0.4 ml/min (VVYP)
(§7) Detection wavelength: 220 nm
(§8) Temperature: room temperature
(§9) Amount applied: 20 μl of 50-fold dilution

[3] = tested on: pancreatin (artificial pancreatic juice); assay: In vitro stability against digestive enzymes, artificial gastric juice then artificial pancreatic juice; type: in vitro ADME; conditions: for HPLC peak of the peptide after digestion: after digestion with artificial gastric and pancreatic juices; for Ratio of recovery: after pepsin 37° C. 4 hr, then pancreatin pH 8.0, 37° C., 2 hr, HPLC peak area, before treatment = 100
Experimental: as §1, §2, §3, §4, §5, §6, §7, §8, §9

[4] = tested on: male and female ICR mice; assay: Toxicological study, oral administration; type: in vivo; conditions: 10 g/kg body weight or more (maximum possible dose)
Experimental: The peptide (VVYP) having the amino acid sequence shown in SEQ ID NO: 1 synthesized in Example 2 was administered orally to male and female ICR mice in an amount of 10 g/kg body weight or more (maximum possible dose).

| Compound | Specific Activity (ratio to mg protein) [1] | Ratio of recovery [2] | HPLC peak of the peptide after digestion [3] | Ratio of recovery [3] | Death [4] | ID50 (dose which inhibits in vivo 50% of serum TG elevations) [1] [mg protein/mouse] | HPLC peak of the peptide after digestion ([2]; after digestion with artificial gastric juice) |
| --- | --- | --- | --- | --- | --- | --- | --- |
| CC(C)[C@H](N)C(=O)N[C@H](C(=O)N[C@@H](Cc1ccc(O)cc1)C(=O)N1CCC[C@H]1C(=O)O)C(C)C [VVYP, Val-Val-Tyr-Pro] (H-VVYP-OH) | 6500 | 108 | remained | 101 | no death occurred | – | – |
| CC(C)[C@H](N)C(=O)N[C@@H](Cc1ccc(O)cc1)C(=O)N1CCC[C@H]1C(=O)O [VYP, Val-Tyr-Pro] (H-Val-Tyr-Pro-OH) | 1130 | 108 | remained | 109 | – | 0.02 | – |
| CC(C)C[C@H](NC(=O)[C@@H](NC(=O)[C@@H](N)C(C)C)[C@@H](C)O)C(=O)O [VTL, Val-Thr-Leu] (H-Val-Thr-Leu-OH) | 448 | – | – | – | – | 0.05 | disappeared |
